Measured values as given in paper PMC9297976 (Journal of Applied Toxicology, 2021).

Tests used:
medaka Esr1 (mEsr1) [1] = molecular target: T1, medaka Esr1 (mEsr1) (Oryzias latipes, UniProt P50241); test: cell-based; set-up: species or system Japanese medaka (Oryzias latipes)
T1 sequence (P50241 1-620): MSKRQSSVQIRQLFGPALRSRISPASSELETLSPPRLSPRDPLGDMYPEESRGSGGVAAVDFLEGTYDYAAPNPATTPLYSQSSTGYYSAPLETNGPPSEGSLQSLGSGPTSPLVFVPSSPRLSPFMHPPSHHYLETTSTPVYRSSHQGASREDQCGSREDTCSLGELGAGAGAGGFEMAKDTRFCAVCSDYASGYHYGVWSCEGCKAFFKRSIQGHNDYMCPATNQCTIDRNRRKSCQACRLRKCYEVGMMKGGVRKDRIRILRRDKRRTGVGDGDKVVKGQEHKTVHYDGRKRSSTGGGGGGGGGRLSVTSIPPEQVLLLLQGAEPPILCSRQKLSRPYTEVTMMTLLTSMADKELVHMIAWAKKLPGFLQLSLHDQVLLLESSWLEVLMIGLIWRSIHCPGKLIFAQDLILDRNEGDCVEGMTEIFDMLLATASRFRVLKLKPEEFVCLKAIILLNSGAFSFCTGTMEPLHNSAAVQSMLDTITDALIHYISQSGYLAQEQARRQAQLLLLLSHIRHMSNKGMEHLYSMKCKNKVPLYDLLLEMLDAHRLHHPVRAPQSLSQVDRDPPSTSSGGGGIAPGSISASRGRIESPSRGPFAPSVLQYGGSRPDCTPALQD

medaka Esr1 (mEsr1) [2] = molecular target: T1, medaka Esr1 (mEsr1); test: Medaka Esr1 reporter gene assay, antagonist assay; type: cell-based, Japanese medaka (Oryzias latipes); conditions: E2 spiked at 0.2 nM (A); MAC = 1.0 × 10^−5 M
medaka ARβ (mArβ) [3] = molecular target: T2, medaka ARβ (mArβ) (Oryzias latipes, UniProt D1MV73); test: Medaka ARβ reporter gene assay, agonist assay; type: cell-based, Japanese medaka (Oryzias latipes); conditions: MAC = 1.0 × 10^−5 M
T2 sequence (D1MV73 1-744): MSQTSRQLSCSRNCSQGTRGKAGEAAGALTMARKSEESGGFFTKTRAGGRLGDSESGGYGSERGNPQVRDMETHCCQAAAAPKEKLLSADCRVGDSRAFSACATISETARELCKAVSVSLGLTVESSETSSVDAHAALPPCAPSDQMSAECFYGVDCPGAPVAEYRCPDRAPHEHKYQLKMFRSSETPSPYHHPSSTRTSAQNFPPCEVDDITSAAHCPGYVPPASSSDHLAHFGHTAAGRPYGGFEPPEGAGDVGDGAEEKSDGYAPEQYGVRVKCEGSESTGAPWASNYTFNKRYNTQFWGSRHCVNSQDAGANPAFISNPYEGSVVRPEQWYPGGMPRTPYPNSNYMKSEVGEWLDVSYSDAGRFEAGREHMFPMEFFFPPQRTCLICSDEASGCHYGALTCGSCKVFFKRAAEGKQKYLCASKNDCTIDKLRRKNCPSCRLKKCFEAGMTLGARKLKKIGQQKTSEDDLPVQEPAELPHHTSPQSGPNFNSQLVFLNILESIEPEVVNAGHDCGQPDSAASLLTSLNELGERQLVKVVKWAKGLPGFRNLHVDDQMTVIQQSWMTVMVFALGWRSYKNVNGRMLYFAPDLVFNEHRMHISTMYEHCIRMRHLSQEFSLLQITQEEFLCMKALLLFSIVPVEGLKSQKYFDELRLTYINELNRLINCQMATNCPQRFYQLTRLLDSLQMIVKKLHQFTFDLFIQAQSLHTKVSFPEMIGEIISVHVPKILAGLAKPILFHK

medaka ARβ (mArβ) [4] = molecular target: T2, medaka ARβ (mArβ); test: Medaka ARβ reporter gene assay, antagonist assay; type: cell-based, Japanese medaka (Oryzias latipes); conditions: 11‐KT spiked at 10 nM (C); MAC = 1.0 × 10^−5 M
[5] = test system: Japanese medaka (Oryzias latipes); test: Fish Short‐Term Reproduction Assay; type: in vivo; conditions: for GSI Female / GSI Male / HSI Female / HSI Male / Length Female / Length Male / Weight Female / Weight Male: completion of exposure
Japanese medaka = conditions: ref Flynn et al. (2018); cited from earlier work
[6] = 598 μg/L measured, 21 d, sig. ↑ vs control
[7] = 952 μg/L measured, 21 d, sig. ↑ vs control
[8] = measured concentration 196 μg/L
[9] = measured concentration 598 μg/L
[10] = measured concentration 952 μg/L

CCOP(=S)(OCC)Oc1cc(C)nc(C(C)C)n1 [DZ, Diazinon]
Agonistic activity PC10 (medaka Esr1 (mEsr1) [1]): PC10 = 1.0 × 10^−5 M | In vitro positive: Esr (medaka Esr1 (mEsr1) [1]; mode of action in which EC50 or PC10 was obtained in RGA): Esr | Antagonistic activity (medaka Esr1 (mEsr1) [2]): NE (MAC = 1.0 × 10^−5 M)^(A) | Agonistic activity (medaka ARβ (mArβ) [3]): NE (MAC = 1.0 × 10^−5 M) | Antagonistic activity (medaka ARβ (mArβ) [4]): NE (MAC = 1.0 × 10^−5 M)^(C) | Individuals with symptoms of presumed paralysis of motor function ([5]; 38 μg/L): 12.5% | Fertility rate ([5]; 38 μg/L measured, 21 d): 96 ± 0.8% | Hepatic VTG, female ([5]; 38 μg/L measured, 21 d): 2,665 ± 1942 ng/mg‐liver | Hepatic VTG, male ([5]; 38 μg/L measured, 21 d): 0.13 ± 0.16 ng/mg‐liver | Mortality ([5]; 38 μg/L measured, 21 d): 4.2% | Mortality, number of dead fish ([5]; 38 μg/L measured, 21 d): 1 | Number of fertilized eggs (per female per day) ([5]; 38 μg/L measured, 21 d): 18 ± 0.7 | Number of total eggs (per female per day) ([5]; 38 μg/L measured, 21 d): 19 ± 0.6 | SSC female (joint plates with papillary processes) ([5]; 38 μg/L measured, 21 d): 0 ± 0 | SSC male (joint plates with papillary processes) ([5]; 38 μg/L measured, 21 d): 82 ± 16 | Fish with symptoms of presumed paralysis of motor function (in words) ([5]; 196 μg/L level and above): all fish | Hepatic VTG, female ([5]; 196 μg/L measured, 21 d): 1722 ± 1,394 ng/mg‐liver | Hepatic VTG, male ([5]; 196 μg/L measured, 21 d): 0.08 ± 0.14 ng/mg‐liver | Mortality ([5]; 196 μg/L measured, 21 d): 4.2% | Mortality, number of dead fish ([5]; 196 μg/L measured, 21 d): 1 | SSC female (joint plates with papillary processes) ([5]; 196 μg/L measured, 21 d): 0 ± 0 | SSC male (joint plates with papillary processes) ([5]; 196 μg/L measured, 21 d): 84 ± 19 | Fertility rate ([5]; 196 μg/L measured, 21 d, sig. ↓ vs control): 12 ± 6.3% | Hepatic VTG, female ([5]; 598 μg/L measured, 21 d): 661 ± 552 ng/mg‐liver | Hepatic VTG, male ([5]; 598 μg/L measured, 21 d): 0.06 ± 0.04 ng/mg‐liver | SSC female (joint plates with papillary processes) ([5]; 598 μg/L measured, 21 d): 0 ± 0 | SSC male (joint plates with papillary processes) ([5]; 598 μg/L measured, 21 d): 89 ± 17 | Mortality [5, 6]: 42% | Mortality, number of dead fish [5, 6]: 10 | Fertility rate ([5]; 598 μg/L measured, 21 d, sig. ↓ vs control): 55 ± 6.7% | Hepatic VTG, female ([5]; 952 μg/L measured, 21 d): 1,621 ± 1,314 ng/mg‐liver | Hepatic VTG, male ([5]; 952 μg/L measured, 21 d): 0.89 ± 1.67 ng/mg‐liver | SSC female (joint plates with papillary processes) ([5]; 952 μg/L measured, 21 d): 0 ± 0 | SSC male (joint plates with papillary processes) ([5]; 952 μg/L measured, 21 d): 89 ± 15 | Mortality [5, 7]: 58% | Mortality, number of dead fish [5, 7]: 14 | Fecundity, number of total eggs (in words) ([5]; 21 d): statistically significant decrease | LOECmVTG ([5]; LOEC on VTG induction in males): ND (>952) μg/L | LOECREPRO ([5]; LOEC on reproduction (fecundity and/or fertility)): 196 µg/L | LOECTOX ([5]; lowest observed effect concentration on mortality): 196 µg/L | GSI Female ([5]; measured concentration 38 μg/L): 12.3 ± 1.3% | GSI Male ([5]; measured concentration 38 μg/L): 0.9 ± 0.4% | HSI Female ([5]; measured concentration 38 μg/L): 5.3 ± 1.20% | HSI Male ([5]; measured concentration 38 μg/L): 2.8 ± 1.70% | Length Female ([5]; measured concentration 38 μg/L): 30.7 ± 1.0 mm | Length Male ([5]; measured concentration 38 μg/L): 30.1 ± 0.6 mm | Weight Female ([5]; measured concentration 38 μg/L): 338 ± 36 mg | Weight Male ([5]; measured concentration 38 μg/L): 294 ± 21 mg | GSI Female [5, 8]: 6.8 ± 3.5% | GSI Male [5, 8]: 0.6 ± 0.2% | HSI Female [5, 8]: 2.0 ± 0.70% | HSI Male [5, 8]: 1.6 ± 0.60% | Length Female [5, 8]: 28.5 ± 1.1 mm | Length Male [5, 8]: 28.5 ± 0.6 mm | Weight Female [5, 8]: 217 ± 19 mg | Weight Male [5, 8]: 200 ± 14 mg | GSI Female [5, 9]: 3.3 ± 0.7% | GSI Male [5, 9]: 0.4 ± 0.1% | HSI Female [5, 9]: 1.9 ± 0.30% | HSI Male [5, 9]: 1.2 ± 0.40% | Length Female [5, 9]: 28.7 ± 0.0 mm | Length Male [5, 9]: 29.6 ± 0.2 mm | Weight Female [5, 9]: 203 ± 47 mg | Weight Male [5, 9]: 190 ± 13 mg | GSI Female [5, 10]: 6.9 ± 2.4% | GSI Male [5, 10]: 0.5 ± 0.1% | HSI Female [5, 10]: 1.6 ± 0.50% | HSI Male [5, 10]: 1.5 ± 0.60% | Length Female [5, 10]: 27.5 ± 0.8 mm | Length Male [5, 10]: 28.3 ± 1.2 mm | Weight Female [5, 10]: 203 ± 26 mg | Weight Male [5, 10]: 183 ± 20 mg | LOEC on fecundity (Japanese medaka): 2.9 µg/L | LOEC on growth (Japanese medaka): 5.2 µg/L
